Measured values published in patent US7691851B2, “Metalloprotease inhibitors containing a heterocyclic moiety” (Alantos Pharmaceuticals Holding, Inc., priority 2007, dated 2010).

Target: T1, MMP-13 (Homo sapiens, UniProt P45452)
T1 construct: 10 μL of a 50 nM stock solution of catalytic domain of MMP-13 enzyme; purchased Invitek (Berlin) 30100812
Assay: Assay for determining MMP-13 inhibition (fluorescent substrate)
Assay type: biochemical
Settings: catalytic domain of MMP-13
Procedure: The inhibiting activity towards different metalloproteases of the heterocyclic metalloprotease inhibiting compounds of the present invention may be measured using any suitable assay known in the art. A standard in vitro assay for measuring the metalloprotease inhibiting activity is described in Examples 1700 to 1704.
The typical assay for MMP-13 activity is carried out in assay buffer comprised of 50 mM Tris, pH 7.5, 150 mM NaCl, 5 mM CaCl2 and 0.05% Brij-35. Different concentrations of tested compounds are prepared in assay buffer in 50 μL aliquots. 10 μL of a 50 nM stock solution of catalytic domain of MMP-13 enzyme (produced by Alantos or commercially available from Invitek (Berlin), Cat.# 30100812) is added to the compound solution. The mixture of enzyme and compound in assay buffer is thoroughly mixed and incubated for 10 min at room temperature. Upon the completion of incubation, the assay is started by addition of 40 μL of a 12.5 μM stock solution of MMP-13 fluorescent substrate (Calbiochem, Cat. No. 444235). The time-dependent increase in fluorescence is measured at the 320 nm excitation and 390 nm emission by automatic plate multireader. The IC50 values are calculated from the initial reaction rates.

[1] = compounds stated as lower than 100 nM

IC50 [1] | IC50 (range class, units printed within the value (nM to μM)) | Structure (SMILES)
< 100 nM | – | Cc1c(C(=O)O)ccc2c1CC[C@@H]2NC(=O)c1cc(C(=O)NCc2ccc3c(c2)NC(=S)CO3)nc2ccnn12 [1/1]
< 100 nM | – | Cc1c(C(=O)O)ccc2c1CC[C@@H]2NC(=O)c1cc(C(=O)NCc2ccc3c(c2)-n2cnnc2CO3)nc2ccnn12 [Example 1]
– | 100 to 20000 nM | Cc1c(C(=O)O)ccc2c1CC[C@@H]2NC(=O)c1cc(C(=O)NCc2ccc3c(c2)-n2c(noc2=O)CO3)nc2ccnn12 [Example 1/2]
